Test results from patent publication US20220133831A1, “Sarcopoterium Spinosum Extract for Treating Inflammation” (Ariel Scientific Innovations Ltd., priority 2019, published 2022).

What was measured:
Format in all cases: cell-based, mouse
RAW264.7 cells [1] = assay: Cell viability assay (XTT); settings: 24 h
Description: (§1) In-vitro experiments were performed on RAW264.7 mouse macrophage cell line and on bone marrow-derived macrophages (BMDM). RAW264.7 cells were grown in high glucose DMEM containing 10% FBS, 2 mM 1-glutamine and 1% penicillin/streptomycin. For BMDM: C57bl/6J mice at age 10 weeks were purchased from Envigo, Israel. BMDMs were isolated from femur and tibia bones. Mice were sacrificed using a CO2 chamber. Mice legs were cut off, while fur, flesh and muscle tissue were removed in sterile environment followed by disconnection of the tibia from the femur. Bone marrow content was washed out using a complete RPMI and 23G syringe followed by filtration of the supernatant through a 21G syringe. The cells were centrifuged at 450×g for 10 min at room temperature and the pellet was resuspended in RPMI containing 10% FBS, 1% penicillin/streptomycin, HEPES buffer (120 Mm) and M-CSF (50 μg/ml). The media was replaced every 3 days. The experiment was performed on the 7th day of differentiation.
RAW264.7 cells were seeded (5×10^4 cells/well) in 96-well plates, and incubated overnight followed by treatment with LPS (200 ng/ml) and/or SSE (70 μg/ml). Cell viability was determined by XTT assay (Biological Industries, Israel. Cat. No.: 20-300-1000) according to manufacturer instructions.

RAW264.7 cells [2] = assay: Cell morphology, bright field micrographs; settings: LPS or SSE, 24 h
Description: FIGS. 3A-3B show increased viability and affected cell morphology in […] cells in response to SSE treatment. RAW264.7 cells were treated with lipopolysaccharide (LPS) or SSE for 24 h. A. Viability was measured by XTT assay. Results are presented as the Mean±SEM, *P<0.05, **P<0.005, ***P<0.001 by one-way Anova, followed by Bonferroni's post-test. B. Micrographs of cells were performed using bright field Olympus imaging system, ×20 magnification. Upper two: left—control; right—LPS; lower two: left—SSE; right—LPS+SSE.
as §1, with “The cells were centrifuged at 450×g for 10 min at room temperature and the pellet was resuspended in RPMI containing 10% FBS, 1% penicillin/streptomycin, HEPES buffer (120 Mm) and M-CSF (50 μg/ml). The media was replaced every 3 days. The experiment was performed on the 7th day of differentiation.” left out

RAW264.7 cells [3] = assay: Nitrite assay (Griess reagent), NO synthesis; settings: LPS and/or SSE, 24 h
Description: (§2) RAW264.7 cells (1×10^5 cells/ml) were cultured in 6-well plates. After 24 h incubating, NO synthesis was determined by assaying the culture supernatant for nitrite, using Griess reagent (Promega), according to manufacturer instructions.

RAW264.7 cells [4] = assay: Real time PCR, mRNA expression of pro and anti-inflammatory genes; settings: LPS and/or SSE, 24 h
Description: (§3) Total RNA was extracted from Raw264.7 cells using TRI reagent (Molecular Research Center, Inc. Cincinnati, Ohio) according to manufacturer instructions. RNA (4 μg) was reverse transcribed by oligo-dT priming (Stratascript 5.0 multi-temperature reverse transcriptase, Stratagene) according to manufacturer instructions. Real-time PCR amplification reactions were performed using SYBR Fast Universal Ready-mix Kit (Kappa Biosystems), using the MxPro QPCR instrument (Stratagene). Primers for real time PCR reactions were synthesized by Sigma, Israel.

NFκB in RAW264.7 cells = assay: NFκB activation (NFkB p65 Transcription Factor Assay Kit); settings: LPS 200 ng/ml, SSE 70 μg/ml
Description: RAW264.7 cells were treated with LPS (200 ng/ml) or SSE (70 μg/ml) for 3 h. NFκB activation was measured using NFkB p65 Transcription Factor Assay Kit (Abcam, Cambridge, UK), according to manufacturer instructions. In this assay, nuclear proteins were extracted using extraction buffer supplied by Abcam. The samples were homogenized and centrifuged at 12,000 RPM for 1 min. The supernatant was collected and protein concentration was measured using the Bradford method. Nuclear protein extract (5 μg) was added to the wells, which were coated with DNA sequence containing the NFkB response element. The selective binding of the transcription factor to its DNA response element was measured according to manufacturer's instructions.

RAW264.7 cells [5] = assay: Western blot analysis of MAPK, STAT and Akt phosphorylation
Description: RAW264.7 cells were treated with LPS (200 ng/ml) and/or SSE (70 μg/ml) for 24 hr. Protein were lysed using RIPA buffer supplemented with protease and phosphatase inhibitors. The samples were homogenized and centrifuged at 14,000 rpm for 15 min. The supernatant was collected and protein concentration was measured using the Bradford method. Proteins (20 μg per lane) were separated by SDS-polyacrylamide gel electrophoresis and transferred onto nitrocellulose membranes. The membranes were blocked in 5% dry milk solution, incubated with the appropriate antibody solutions (5% BSA in 0.01% TBST) and proteins were immunodetected using the enhanced chemiluminescence method.

[6] = test system: bone marrow-derived macrophages (BMDM); assay: Cell morphology of bone marrow-derived macrophages; settings: LPS or SSE, 24 hr
Description: FIGS. 6A-6D show an immunomodulatory effect of SSE on bone marrow-derived macrophages (BMDM). BMDM were isolated and cultured as described in the methods. Cells were treated with LPS and/or SSE for 24 hr. A. micrographs of cells were performed by bright field Olympus imaging system. Upper two: left—control; right—LPS; lower two: left—SSE; right—LPS+SSE. B. NO synthesis was measured by Griess reagent as described in the methods. C. mRNA was isolated and expression of selected genes was measured by RT-PCR as described in the methods. Results were normalized to the expression of the housekeeping gene RPS29, and are presented as the Mean±SEM. *P<0.05, **P<0.005, ***P<0.001 ****P<0.0001 compared to control, or as indicated in graphs, by one-way Anova, followed by Bonferroni's post-test. D. Western-blot analysis was performed as described in the methods. These are representative results of 3 independent experiments.
In-vitro experiments were performed on RAW264.7 mouse macrophage cell line and on bone marrow-derived macrophages (BMDM). RAW264.7 cells were grown in high glucose DMEM containing 10% FBS, 2 mM 1-glutamine and 1% penicillin/streptomycin. For BMDM: C57bl/6J mice at age 10 weeks were purchased from Envigo, Israel. BMDMs were isolated from femur and tibia bones. Mice were sacrificed using a CO2 chamber. […]

[7] = test system: bone marrow-derived macrophages (BMDM); assay: NO secretion of BMDM (Griess reagent); settings: 24 hr
Description: as §1, §2

[8] = test system: bone marrow-derived macrophages (BMDM); assay: mRNA expression in BMDM (RT-PCR); settings: 24 hr
Description: as §1, §3

[9] = test system: bone marrow-derived macrophages (BMDM); assay: Western blot analysis of MAPK phosphorylation in BMDM
Description: as §1
RAW264.7 cells were treated with LPS (200 ng/ml) and/or SSE (70 μg/ml) for 24 hr. Protein were lysed using RIPA buffer supplemented with protease and phosphatase inhibitors. The samples were homogenized and centrifuged at 14,000 rpm for 15 min. The supernatant was collected and protein concentration was measured using the Bradford method. […]

[10] = LPS 200 ng/ml or SSE 70 μg/ml, 24 hr

Substance: lipopolysaccharide [LPS]
- proliferation rate (viability by XTT) (RAW264.7 cells [1]): stimulatory effect
- morphology of cells (RAW264.7 cells [2]): flattened, increased in size and acquired a distinct dendritic morphology
- NO synthesis (nitrite in supernatant) (RAW264.7 cells [3]): increased
- mRNA expression of IL1β (RAW264.7 cells [4]): increased
- mRNA expression of IL-6 (RAW264.7 cells [4]): increased
- mRNA expression of MCP-1 (RAW264.7 cells [4]): increased
- mRNA expression of TNFα (RAW264.7 cells [4]): increased
- NFκB activation (binding of NFκB to its DNA response element) (NFκB in RAW264.7 cells): increased
- Akt phosphorylation (RAW264.7 cells [5]): induced
- STAT1 phosphorylation (RAW264.7 cells [5]): not affected
- STAT3 phosphorylation on S727 residue (RAW264.7 cells [5]): induced to be phosphorylated
- ERK1/2 phosphorylation (RAW264.7 cells [5]; [10]): phosphorylated
- JNK phosphorylation (RAW264.7 cells [5]; [10]): phosphorylated
- p38 phosphorylation (RAW264.7 cells [5]; [10]): phosphorylated
- STATS phosphorylation (RAW264.7 cells [5]; data not shown): not detected at all
- morphology of BMDM [6]: enlargement of the cells, with a minor vacuolization
- NO secretion (basal) [7]: significantly increased
- mRNA expression of Arg1 [8]: also increased
- mRNA expression of IL1β [8]: stimulated
- mRNA expression of IL-6 [8]: stimulated
- mRNA expression of IL-10 [8]: also increased
- mRNA expression of MCP-1 [8]: stimulated
- mRNA expression of TNFα [8]: stimulated
- Erk phosphorylation [9]: phosphorylated
- P38 phosphorylation [9]: increased
